From patent publication US20230143490A1, “METHODS OF TREATING SOIL” (Taminco BV, priority 2020, published 2023)

Key:
[1] = system: Cavendish banana plants; assay: Field trial: banana plant growth and development after metam sodium soil injection at 30 cm and 60 cm; format: in vivo, Musa (Cavendish banana)
Method: (§1) Metam Sodium Application. Metam sodium 510 SL (equivalent to 42% w/w) was applied to soil at the following doses: 0 liters per hectare (L/ha), 750 L/ha, 1500 L/ha, 2250 L/ha, 3000 L/ha.
(§2) Prior to injection, soil was prepared using a rototiller to break the soil structure from 0 cm to 80 cm deep, allowing for the smooth and even injection application by an injection machine. The soil was then leveled and made uniform, and the metam sodium was applied at two depths: 30 cm and 60 cm, using injection methods. The temperature was at a minimum of 10° C. and soil humidity was between 50 and 60% holding capacity, allowing the applied product to transform from metam sodium (liquid) to MITC (gas).
(§3) The application was made using an injection machine wherein the machine lowered shanks and began moving forward such that the shanks lowered to a depth of 60 cm and injectors applied the metam sodium into the soil. When the injection at 60 cm was complete, the process was repeated for the entire field at 30 cm. The treated soil in the field was then sealed using a packer roller (which was part of the injection machinery, located at the back end of the machine), after each application.
Plant Selection and Transplantation. Cavendish banana plants were used for this investigation. In order to avoid plants already contaminated by other soil, all plants were produced in vitro using art-recognized methods. Plants were transplanted into the field 14 days after the final soil reading was taken (21 days after treatment).
Data Gathering. Data were gathered at monthly intervals beginning three months after banana plants were transplanted. A total of three data collection sessions were conducted. Data including the number of leaves, plant height, and girth size were collected.

[2] = system: Foc TR4 chlamydospores; assay: In vitro efficacy of metam sodium on Foc TR4 chlamydospores (colony growth on PDA plates); format: cell-based, Fusarium oxysporum f. sp. cubense Tropical Race 4
Method: Foc TR4 chlamydospores were extracted from infested soil and incubated with a dilution series of metam sodium for 5 min and 60 min at room temperature. Thereafter, the samples were diluted 10× to get reduction of the treatment and sufficient dilution of chlamydospores to avoid lack of resolution when grown on plate. Aliquots of 100 μl were plated on PDA plates in duplicate and incubated for 3 days at 25° C. Plates were photographed and scored.

[3] = system: F. oxysporum f. sp. cubense; assay: Panama disease analysis of field soil samples after metam sodium injection (plating on Komada medium); format: in vivo, Fusarium oxysporum f. sp. cubense Tropical Race 4; details: any of the treated groups; any day post application
Method: as §1, §2, §3
Soil Analysis. Soil samples were obtained at 20, 40, and 60 cm before application and every 24 hours beginning 48 hours after application, for seven days.
Plant Pathology Analysis. […]

[4] = 750 L/ha, six months after treatment
[5] = 1500 L/ha, six months after treatment
[6] = 2250 L/ha, six months after treatment
[7] = 3000 L/ha, six months after treatment

## CNC(=S)S [metam sodium, sodium N-methyldithiocarbamate]
[1]; 750 L/ha
  average girth size of banana plant, increase: ~1 cm
  average height of banana plant, increase: ~5 cm
[1]; [4]
  percent of plants at either shooting or bagging stage: 11%
  percent of plants at shooting stage: 9%
  plants reaching bagging stage: did not have a meaningful effect
[1]; 1500-3000 L/ha
  average girth size of banana plant, increase: 4-6 cm
  average height of banana plant, increase: 20-23 cm
[1]; [5]
  percent of plants at either shooting or bagging stage: 28%
  percent of plants at shooting stage: 10%
[1]; 1500 to 3000 L/ha, six months after treatment
  percent of plants at bagging stage: 11-19%
[1]; [6]
  percent of plants at either shooting or bagging stage: 27%
  percent of plants at shooting stage: 17%
[1]; [7]
  percent of plants at either shooting or bagging stage: 35%
  percent of plants at shooting stage: 22%
[1]; regardless of dose applied (750-3000 L/ha), vs 0 L/ha
  average number of leaves, increase: roughly 1.5 fold
[2]; 100× dilution, prolonged incubation (60 min vs 5 min)
  reducing the number of surviving chlamydospores, measured as growing colonies: more effective
[2]; dilution of 10×, incubation time 5 minutes
  efficacy on Foc TR4 colony growth: effective
[2]; dilution of 100×, 5 and 60 minutes
  efficacy on Foc TR4 colony growth: less effective
[2]; first test, dilutions from 1000 up to 10×10^6-fold, 60 min
  reduction in viability of Foc TR4 chlamydospores: No significant reduction in viability
[2]; in vitro conditions, dependent on high concentrations
  efficacy against Foc TR4 chlamydospores: effective against Foc TR4 chlamydospores
[2]; second test, 10× and 100× dilutions
  efficacy on chlamydospore survival: (partially) effective
[2]; second test, dilutions of 1000× and more
  number of chlamydospores that survived: did not affect the number of chlamydospores that survived
[3]
  soil contamination: Foc TR4 detection: No Foc TR4 was detected
